The values below come from patent EP4782445A1, “CDK KINASE INHIBITOR AND USE THEREOF” (Abbisko Therapeutics Co., Ltd., priority 2023, dated 2025).

One experiment addresses T1, CDK2/cyclin E1 (Homo sapiens, UniProt P24941).
T1 construct: purchased Carna
Put plainly: In vitro biochemical kinase activity assay for CDK2/cyclin E1 (HTRF). To be noted: 1 µM ATP. As for the experimental part: I. In Vitro Biochemical Kinase Activity Assay for CDK2/Cyclin E1
The inhibitory effects of the compounds of the present invention on CDK2/cyclin E1 kinase activity were determined using a homogeneous time-resolved fluorescence (HTRF) assay. The experimental process was as follows: • 1. The kinase reaction was carried out in a 384-well plate. 15 nM CDK2/cyclin E1 kinase (Carna), 1 µM ATP, and 1 µM biotin-labeled substrate protein ATF2-biotin (Cisbio) were incubated at room temperature for 90 min in a buffer system composed of 10 mM MgCl2, 1 mM MnCl2, 1 mM DTT, and basal kinase buffer (Cisbio). • 2. The detection solution (Cisbio, containing reagents that specifically recognize phosphorylated ATF2 and ATF2-biotin proteins, respectively) was added. The plate was then sealed with a film (to protect from light and volatilization) and incubated at 25°C for 60 min. • 3. The plate was transferred to an Envision plate reader to detect fluorescence resonance energy transfer (FRET) signals. (The 665/615 ratio was calculated by reading the emission at 665 nm and 615 nM, respectively.) • 4. The IC50 values were determined by analyzing the inhibition at varying compound concentrations using Model 205 in the XLfit software.
In general terms: In TR-FRET formats the signal depends on donor and acceptor labels being close together.

Another experiment deals with T2, CDK4/cyclin D3 (Homo sapiens, UniProt P11802).
T2 construct: purchased Carna
Put plainly: In vitro biochemical kinase activity assay for CDK4/cyclin D3 (HTRF). The following applies: unmarked data: 80 µM ATP in Step 1. In a few lines: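 HTRF kinase reaction: 4.9 nM CDK4/cyclin D3, 1 mM (or 80 µM) ATP and 0.3 µM Rb-biotin substrate, 90 min at 30°C in buffer with 50 mM MgCl2 and 1 mM DTT.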

The next experiment addresses T3, CDK6/cyclin D3 (Homo sapiens, UniProt Q00534).
T3 construct: purchased Carna
The experiment can be described thus: In vitro biochemical kinase activity assay for CDK6/cyclin D3 (HTRF). To be noted: unmarked data: 100 µM ATP in Step 1. In a few lines:
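HTRF assay: 0.02 nM CDK6/cyclin D3 incubated with 1 mM (or 100 µM) ATP and 0.3 µM Rb-biotin substrate at 30°C for 60 min in kinase buffer with 5 mM MgCl2 and 1 mM DTT.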

T3 sequence (Q00534 whole entry): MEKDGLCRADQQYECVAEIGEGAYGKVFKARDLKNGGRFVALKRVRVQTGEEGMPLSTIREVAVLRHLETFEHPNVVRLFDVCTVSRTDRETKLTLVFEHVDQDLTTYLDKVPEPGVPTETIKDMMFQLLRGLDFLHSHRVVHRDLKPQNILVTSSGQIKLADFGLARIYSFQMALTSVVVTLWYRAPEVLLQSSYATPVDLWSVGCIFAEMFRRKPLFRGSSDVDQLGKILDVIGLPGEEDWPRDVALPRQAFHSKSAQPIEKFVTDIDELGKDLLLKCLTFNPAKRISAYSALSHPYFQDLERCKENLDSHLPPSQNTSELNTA
T3 sequence (P30281 whole entry partner): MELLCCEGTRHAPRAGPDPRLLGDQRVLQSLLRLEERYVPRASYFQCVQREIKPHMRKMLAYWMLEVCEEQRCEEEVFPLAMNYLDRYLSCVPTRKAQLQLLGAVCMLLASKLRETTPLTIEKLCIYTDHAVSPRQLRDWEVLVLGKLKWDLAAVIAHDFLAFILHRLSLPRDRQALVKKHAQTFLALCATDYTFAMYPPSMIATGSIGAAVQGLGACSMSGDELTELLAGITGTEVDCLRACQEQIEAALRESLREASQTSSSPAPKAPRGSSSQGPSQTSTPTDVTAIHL
T2 sequence (P11802 whole entry): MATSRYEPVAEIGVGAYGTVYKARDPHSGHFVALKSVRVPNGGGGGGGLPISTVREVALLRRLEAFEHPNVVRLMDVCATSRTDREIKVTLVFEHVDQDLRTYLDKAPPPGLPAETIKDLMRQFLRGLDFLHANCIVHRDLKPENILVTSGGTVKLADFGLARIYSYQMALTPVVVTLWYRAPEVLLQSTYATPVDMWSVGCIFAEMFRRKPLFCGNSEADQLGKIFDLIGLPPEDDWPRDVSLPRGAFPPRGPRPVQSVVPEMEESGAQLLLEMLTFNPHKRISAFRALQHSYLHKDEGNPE
T2 sequence (P30281 whole entry partner): as the sequence (P30281 whole entry partner) above

On to `CCN1CCN(Cc2ccc(Nc3ncc(Cl)c(C#Cc4cnc(C(C)(C)O)n4C(C)C)n3)nc2)CC1` [Example 41, 2-(5-((5-chloro-2-((5-((4-ethylpiperazin-1-yl)methyl)pyridin-2-yl)amino)pyrimidin-4-yl)ethynyl)-1-isopropyl-1H-imidazol-2-yl)propan-2-ol], for which the IC50 (commonly the midpoint of a concentration-inhibition curve) against CDK2/cyclin E1 amounted to 1850 nM; against CDK4/cyclin D3, 1.83 nM; against CDK6/cyclin D3, 11 nM.
As for `CCN1CC2(C1)CN(c1ccc(Nc3ncc(Cl)c(C#Cc4cnn(C)c4C(C)C)n3)nc1)C2` [Example 62, 5-chloro-N-(5-(6-ethyl-2,6-diazaspiro[3.3]heptan-2-yl)pyridin-2-yl)-4-((5-isopropyl-1-methyl-1H-pyrazol-4-yl)ethynyl)pyrimidin-2-amine], the figures for the IC50 on CDK2/cyclin E1, on CDK4/cyclin D3 and at CDK6/cyclin D3 were 129 nM, 0.36 nM and 4.86 nM, respectively.
For the compound `CC(C)c1c(C#Cc2nc(Nc3ccc(C4CCN(C)CC4)cn3)ncc2Cl)cnn1C` [Example 57, 5-chloro-4-((5-isopropyl-1-methyl-1H-pyrazol-4-yl)ethynyl)-N-(5-(1-methylpiperidin-4-yl)pyridin-2-yl)pyrimidin-2-amine], the figures for the IC50 against CDK2/cyclin E1, against CDK4/cyclin D3 and against CDK6/cyclin D3 were 2830 nM, 0.68 nM and 3.7 nM, respectively.
Taken in the same sequence, the figures for `CC(C)n1c(C#Cc2nc(N[C@@H]3COC[C@H]3O)ncc2Cl)cnc1C(C)(C)O` [Example 53, (3 S,4R)-4-((5-chloro-4-((2-(2-hydroxypropan-2-yl)-1-isopropyl-1H-imidazol-5-yl)ethynyl)pyrimidin-2-yl)amino)tetrahydrofuran-3-ol] were 493 nM, 60.9 nM and 192 nM.
Turning to `CC(C)n1c(C#Cc2nc(N[C@@H]3CCOC[C@H]3O)ncc2Cl)cnc1[C@@H](C)O` [Example 31, (3 S,4R)-4-((5-chloro-4-((2-((R)-1-hydroxyethyl)-1-isopropyl-1H-imidazol-5-yl)ethynyl)pyrimidin-2-yl)amino)tetrahydro-2H-pyran-3-ol], the values for the IC50 against CDK2/cyclin E1, on CDK4/cyclin D3 and against CDK6/cyclin D3 were 590 nM, 7.85 nM and 47.1 nM, respectively.
Turning to `CC(C)n1c(C#Cc2cc(N[C@@H]3CCOC[C@H]3O)ncc2Cl)cnc1CN1CCC[C@H](O)C1` [Example 109, (S)-1-((5-((5-chloro-2-(((3 S,4R)-3-hydroxytetrahydro-2H-pyran-4-yl)amino)pyridin-4-yl)ethynyl)-1-isopropyl-1H-imidazol-2-yl)methyl)piperidin-3-ol], the IC50 against CDK2/cyclin E1 was found to be 3190 nM; against CDK4/cyclin D3 it was 4.5 nM; against CDK6/cyclin D3, 223 nM.
Regarding `CC(C)n1c(C#Cc2nc(Nc3ccc(C4CCN(C)CC4)cn3)ncc2Cl)cnc1C(C)(C)O` [Example 55, 2-(5-((5-chloro-2-((5-(1-methylpiperidin-4-yl)pyridin-2-yl)amino)pyrimidin-4-yl)ethynyl)-1-isopropyl-1H-imidazol-2-yl)propan-2-ol], the values for the IC50 against CDK2/cyclin E1, on CDK4/cyclin D3 and on CDK6/cyclin D3 were 2120 nM, 0.33 nM and 1.9 nM, respectively.
`CC(C)c1c(C#Cc2nc(N[C@@H]3CCOC[C@H]3O)ncc2Cl)cnn1C` [Example 56, (3 S,4R)-4-((5-chloro-4-((5-isopropyl-1-methyl-1H-pyrazol-4-yl)ethynyl)pyrimidin-2-yl)amino)tetrahydro-2H-pyran-3-ol]: the IC50 on CDK2/cyclin E1 stood at 1370 nM; against CDK4/cyclin D3, 3.07 nM; against CDK6/cyclin D3 it was 49 nM.
Regarding `CC(C)n1c(C#Cc2nc(N[C@@H]3CCN(S(C)(=O)=O)C[C@H]3O)ncc2Cl)cnc1C(C)(C)O` [Example 24, (3R,4R)-4-((5-chloro-4-((2-(2-hydroxypropan-2-yl)-1-isopropyl-1H-imidazol-5-yl)ethynyl)pyrimidin-2-yl)amino)-1-(methanesulfonyl)piperidin-3-ol], the results for the IC50 on CDK2/cyclin E1, at CDK4/cyclin D3 and at CDK6/cyclin D3 were 236 nM, 0.56 nM and 3.04 nM, respectively.
`CNCc1ncc(C#Cc2nc(N[C@@H]3CCOC[C@H]3O)ncc2Cl)n1C(C)C` [Example 35, (3 S,4R)-4-((5-chloro-4-((1-isopropyl-2-((methylamino)methyl)-1H-imidazol-5-yl)ethynyl)pyrimidin-2-yl)amino)tetrahydro-2H-pyran-3-ol]: the IC50 on CDK2/cyclin E1 worked out at 539 nM; against CDK4/cyclin D3 it was 19 nM; on CDK6/cyclin D3, 131 nM.
As for `CC(=O)c1ncc(C#Cc2nc(N[C@@H]3CCOC[C@H]3O)ncc2Cl)n1C(C)C` [Example 1, 1-(5-((5-chloro-2-(((3S,4R)-3-hydroxytetrahydro-2H-pyran-4-yl)amino)pyrimidin-4-yl)ethynyl)-1-isopropyl-1H-imidazol-2-yl)ethan-1-one], the results for the IC50 against CDK2/cyclin E1, against CDK4/cyclin D3 and against CDK6/cyclin D3 were 3630 nM, 6.2 nM and 24.2 nM, respectively.
The corresponding values for `CC(=O)c1ncc(C#Cc2nc(N[C@@H]3CCOC[C@H]3O)ncc2Cl)n1C(C)C` [Example 52, 1-(5-((5-chloro-2-(((3 S,4R)-3-hydroxytetrahydro-2H-pyran-4-yl)amino)pyrimidin-4-yl)ethynyl)-1-isopropyl-1H-imidazol-2-yl)ethan-1-one] are 2930 nM, 6.22 nM and 24.2 nM.
`CC(C)NCc1ncc(C#Cc2nc(N[C@@H]3CCOC[C@H]3O)ncc2Cl)n1C(C)C` [Example 40, (3 S,4R)-4-((5-chloro-4-((1-isopropyl-2-((isopropylamino)methyl)-1H-imidazol-5-yl)ethynyl)pyrimidin-2-yl)amino)tetrahydro-2H-pyran-3-ol]: the figures for the IC50 against CDK2/cyclin E1, on CDK4/cyclin D3 and against CDK6/cyclin D3 were 1970 nM, 30.8 nM and 299 nM, respectively.
